Calls of active or inactive are those of the source. How the calls were made is not given here.
Test system: CCRIS mutagenicity, Ames/micronucleus/aberration tests
Assay: CCRIS mutagenicity studies
[1] = Test System: AMES SALMONELLA TYPHIMURIUM, Strain/Indicator: TA98, Metabolic Activation: NONE, Method: PREINCUBATION
[2] = Test System: AMES SALMONELLA TYPHIMURIUM, Strain/Indicator: TA100, Metabolic Activation: NONE, Method: PREINCUBATION
[3] = Test System: AMES SALMONELLA TYPHIMURIUM, Strain/Indicator: TA100, Metabolic Activation: RAT, LIVER, S-9, PHENOBARBITAL AND 5,6-BENZOFLAVONE, Method: PREINCUBATION
[4] = Test System: AMES SALMONELLA TYPHIMURIUM, Strain/Indicator: TA1535, Metabolic Activation: NONE, Method: PREINCUBATION
[5] = Test System: AMES SALMONELLA TYPHIMURIUM, Strain/Indicator: TA1537, Metabolic Activation: NONE, Method: PREINCUBATION
[6] = Test System: AMES SALMONELLA TYPHIMURIUM, Strain/Indicator: TA98, Metabolic Activation: HAMSTER, LIVER, S-9, AROCLOR 1254 (10%), Method: PREINCUBATION
[7] = Test System: AMES SALMONELLA TYPHIMURIUM, Strain/Indicator: TA98, Metabolic Activation: RAT, LIVER, S-9, AROCLOR 1254 (10%), Method: PREINCUBATION
[8] = Test System: AMES SALMONELLA TYPHIMURIUM, Strain/Indicator: TA100, Metabolic Activation: HAMSTER, LIVER, S-9, AROCLOR 1254 (10%), Method: PREINCUBATION
[9] = Test System: AMES SALMONELLA TYPHIMURIUM, Strain/Indicator: TA100, Metabolic Activation: RAT, LIVER, S-9, AROCLOR 1254 (10%), Method: PREINCUBATION
[10] = Test System: AMES SALMONELLA TYPHIMURIUM, Strain/Indicator: TA1535, Metabolic Activation: HAMSTER, LIVER, S-9, AROCLOR 1254 (10%), Method: PREINCUBATION
[11] = Test System: AMES SALMONELLA TYPHIMURIUM, Strain/Indicator: TA1535, Metabolic Activation: RAT, LIVER, S-9, AROCLOR 1254 (10%), Method: PREINCUBATION
[12] = Test System: AMES SALMONELLA TYPHIMURIUM, Strain/Indicator: TA1537, Metabolic Activation: HAMSTER, LIVER, S-9, AROCLOR 1254 (10%), Method: PREINCUBATION
[13] = Test System: AMES SALMONELLA TYPHIMURIUM, Strain/Indicator: TA1537, Metabolic Activation: RAT, LIVER, S-9, AROCLOR 1254 (10%), Method: PREINCUBATION
[14] = Test System: AMES SALMONELLA TYPHIMURIUM, Strain/Indicator: TA98, Metabolic Activation: NONE, Method: STANDARD PLATE
[15] = Test System: AMES SALMONELLA TYPHIMURIUM, Strain/Indicator: TA100, Metabolic Activation: NONE, Method: STANDARD PLATE

Measured: mutagenic call

CCCOC(C(=O)OC1CCN(C)CC1)(c1ccccc1)c1ccccc1
inactive: [1] inactive; negative | Test System: AMES SALMONELLA TYPHIMURIUM, Strain/Indicator: TA98, Metabolic Activation: RAT, LIVER, S-9, PHENOBARBITAL AND 5,6-BENZOFLAVONE, Method: PREINCUBATION inactive; negative | [2] inactive; negative | [3] inactive; negative | [4] inactive; negative | Test System: AMES SALMONELLA TYPHIMURIUM, Strain/Indicator: TA1535, Metabolic Activation: RAT, LIVER, S-9, PHENOBARBITAL AND 5,6-BENZOFLAVONE, Method: PREINCUBATION inactive; negative | [5] inactive; negative | Test System: AMES SALMONELLA TYPHIMURIUM, Strain/Indicator: TA1537, Metabolic Activation: RAT, LIVER, S-9, PHENOBARBITAL AND 5,6-BENZOFLAVONE, Method: PREINCUBATION inactive; negative | Test System: E. COLI, Strain/Indicator: WP2 UVRA, Metabolic Activation: NONE, Method: PREINCUBATION inactive; negative | Test System: E. COLI, Strain/Indicator: WP2 UVRA, Metabolic Activation: RAT, LIVER, S-9, PHENOBARBITAL AND 5,6-BENZOFLAVONE, Method: PREINCUBATION inactive; negative

O=P1(N(CCCl)CCCl)NC(OO)CCO1 (stereo unspecified)
active: Test System: UDS HUMAN LYMPHOCYTES, Strain/Indicator: THY INCORP (NON-S-PHASE), Metabolic Activation: NONE, Method: LIQUID SCINTILLATION COUNTING active; positive

c1ccc2c(c1)ccc1nc3c4c(c5ccccc5c3cc12)O4
active: Test System: AMES SALMONELLA TYPHIMURIUM, Strain/Indicator: TA100, Metabolic Activation: GUINEA PIG, LIVER, S-9, 3-METHYLCHOLANTHRENE, Method: STANDARD PLATE active; positive

c1cnc2c(c1)ccc1cccnc12
active: Test System: MOUSE LYMPHOMA, Strain/Indicator: L5178Y (TK+/TK-), Metabolic Activation: NONE, Method: SUSPENSION/PLATE active; positive. reevaluation of results: positive | Test System: MOUSE LYMPHOMA, Strain/Indicator: L5178Y (TK+/TK-), Metabolic Activation: RAT, LIVER, S-9, AROCLOR 1254, Method: SUSPENSION/PLATE active; positive. reevaluation of results: positive
inactive: [6] inactive; negative | [1] inactive; negative | [7] inactive; negative | [8] inactive; negative | [2] inactive; negative | [9] inactive; negative | [3] inactive; negative | [10] inactive; negative | [4] inactive; negative | [11] inactive; negative | [12] inactive; negative | [5] inactive; negative | [13] inactive; negative

CC(=O)OC(OC(C)=O)c1ccc([N+](=O)[O-])o1
active: Test System: AMES SALMONELLA TYPHIMURIUM, Strain/Indicator: TA98(1,8-DNP6), Metabolic Activation: NONE, Method: STANDARD PLATE active; positive | Test System: AMES SALMONELLA TYPHIMURIUM, Strain/Indicator: TA98(1,8-DNP6), Metabolic Activation: RAT, LIVER, S-9, 3-METHYLCHOLANTHRENE, Method: STANDARD PLATE active; positive | Test System: AMES SALMONELLA TYPHIMURIUM, Strain/Indicator: TA98(NR), Metabolic Activation: NONE, Method: STANDARD PLATE active; positive | Test System: AMES SALMONELLA TYPHIMURIUM, Strain/Indicator: TA98(NR), Metabolic Activation: RAT, LIVER, S-9, 3-METHYLCHOLANTHRENE, Method: STANDARD PLATE active; positive | [14] active; positive | Test System: AMES SALMONELLA TYPHIMURIUM, Strain/Indicator: TA98, Metabolic Activation: RAT, LIVER, S-9, 3-METHYLCHOLANTHRENE, Method: STANDARD PLATE active; positive | Test System: E. COLI, Strain/Indicator: WP2 UVRA, Metabolic Activation: NONE, Method: SPOT active; positive

COC(=O)C(C)=Cc1ccc([N+](=O)[O-])o1
active: [1] active; positive

COc1cccc2c1C(=O)c1c(O)c3c(c(O)c1C2=O)CC(O)(C(C)=O)CC3OC1CC(N(C)C)C(O)C(C)O1 (stereo unspecified)
inactive: Test System: CHINESE HAMSTER V-79, Strain/Indicator: V-79/8-AZAGUANINE, Metabolic Activation: RAT, HEPATOCYTES inactive; negative
active: Test System: UDS RAT HEPATOCYTES, Strain/Indicator: THY INCORP, Metabolic Activation: NONE, Method: AUTOMATIC COLONY COUNTER active; positive

Cc1cc(C)nc(SC(=O)OC(C)(C)C)n1
inactive: [14] inactive; negative | Test System: AMES SALMONELLA TYPHIMURIUM, Strain/Indicator: TA98, Metabolic Activation: RAT, LIVER, S-9, AROCLOR 1254, Method: STANDARD PLATE inactive; negative | [15] inactive; negative | Test System: AMES SALMONELLA TYPHIMURIUM, Strain/Indicator: TA100, Metabolic Activation: RAT, LIVER, S-9, AROCLOR 1254, Method: STANDARD PLATE inactive; negative | Test System: AMES SALMONELLA TYPHIMURIUM, Strain/Indicator: TA1535, Metabolic Activation: NONE, Method: STANDARD PLATE inactive; negative | Test System: AMES SALMONELLA TYPHIMURIUM, Strain/Indicator: TA1535, Metabolic Activation: RAT, LIVER, S-9, AROCLOR 1254, Method: STANDARD PLATE inactive; negative | Test System: AMES SALMONELLA TYPHIMURIUM, Strain/Indicator: TA1537, Metabolic Activation: NONE, Method: STANDARD PLATE inactive; negative | Test System: AMES SALMONELLA TYPHIMURIUM, Strain/Indicator: TA1537, Metabolic Activation: RAT, LIVER, S-9, AROCLOR 1254, Method: STANDARD PLATE inactive; negative

Cc1ccc(NC(N)=O)cc1
inactive: [6] inactive; negative | [1] inactive; negative | [7] inactive; negative | [8] inactive; negative | [2] inactive; negative | [9] inactive; negative | [10] inactive; negative | [4] inactive; negative | [11] inactive; negative | [12] inactive; negative | [5] inactive; negative | [13] inactive; negative

CCCCOO
active: Test System: AMES SALMONELLA TYPHIMURIUM, Strain/Indicator: TA102, Metabolic Activation: NONE, Method: STANDARD PLATE active; positive
inactive: [15] inactive; negative

COC(=O)c1occ(-c2ccccc2)c1-c1ccccc1
inactive: [14] inactive; negative | [15] inactive; negative
